Target: Neuronal acetylcholine receptor subunit alpha-7 (Rattus norvegicus, UniProt Q05941)
Assay: Displacement of [3H]epibatidine from alpha7 nAChR in rat brain membranes after 2 hrs

Chain of Neuronal acetylcholine receptor subunit alpha-7 (Q05941 whole entry): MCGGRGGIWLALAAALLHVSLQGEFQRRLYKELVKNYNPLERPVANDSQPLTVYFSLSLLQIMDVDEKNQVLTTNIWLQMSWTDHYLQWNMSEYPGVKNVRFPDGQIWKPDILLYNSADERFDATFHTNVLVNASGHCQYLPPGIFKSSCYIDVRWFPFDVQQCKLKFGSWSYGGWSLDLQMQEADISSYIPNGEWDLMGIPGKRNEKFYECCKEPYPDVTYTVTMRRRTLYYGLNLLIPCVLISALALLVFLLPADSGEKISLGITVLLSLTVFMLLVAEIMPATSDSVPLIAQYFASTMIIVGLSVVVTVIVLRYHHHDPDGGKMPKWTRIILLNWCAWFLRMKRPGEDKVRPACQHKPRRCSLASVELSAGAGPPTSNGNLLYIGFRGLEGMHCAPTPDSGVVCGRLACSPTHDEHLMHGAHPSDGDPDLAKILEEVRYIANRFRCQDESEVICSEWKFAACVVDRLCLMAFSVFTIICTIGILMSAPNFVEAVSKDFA

Structure (SMILES): CN1C2CCCC1CC(N1C(=O)Cc3ccccc31)C2 (stereo unspecified) [1-(1-(9-methyl-9-azabicyclo[3.3.1]nonan-3-yl)indolin-2-one]
- Ki: > 100 µM

Reference: BindingDB's records for doi:10.1021/jm1006148 (Sri International, 2010)
